Read-outs that look alike come from different tables or passages of the source.
Assays:
A375 = test: Cell viability (MTS) anti-proliferative assay, A375; type: cell-based; conditions: A-375, A375 human melanoma, 48 h treatment, n = 4, read-out: IC50 values ± SEM, A375
Procedure: (§1) The anti-proliferative effect of UC-112 and its analogs were tested in human melanoma (A375, M14 and M14/LCC6MDR1) and human prostate cancer (PC-3) cell lines. All the cell lines were purchased from ATCC (American Type Culture Collection, Manassas, VA). The cancer cells were cultured using the supplemented cell culture medium as described before at 37°C in a humidified atmosphere containing 5% CO2. 5000 cells in logarithm growing phase were seeded overnight into each well of a 96-well plate. Then the cells were continuously incubated with sequential diluted compound solution (10 nM to 100 μM, 100 μl per well) in cell culture medium.

M14/LCC6MDR1 = test: Cell viability (MTS) anti-proliferative assay, multidrug-resistant M14/LCC6MDR1; type: cell-based, human; conditions: for IC50: multidrug-resistant M14/LCC6MDR1 melanoma, 48 h treatment, MTS, n = 4, read-out: IC50 values ± SEM, M14/LCC6MDR1; for Resistance Index: IC50 on M14/LCC6MDR1 divided by IC50 on parental M14
Procedure: as §1

PC-3 = test: Cell viability (MTS) anti-proliferative assay, PC-3; type: cell-based; conditions: PC-3 human prostate cancer, 48 h treatment, n = 4, read-out: IC50 values ± SEM, PC-3
Procedure: as §1

M14 = test: Cell viability (MTS) anti-proliferative assay, M14; type: cell-based; conditions: M14 human melanoma, 48 h treatment, n = 4, read-out: IC50 values ± SEM, M14
Procedure: as §1

NCI-60 cell lines = test: NCI-60 cell line screening (SRB), whole panel; type: cell-based, human; conditions: for Activity in NCI-60 one-concentration screening: 10 μM
Procedure: Four compounds including the parental compound UC-112 were submitted to National Cancer Institute for its NCI-60 cell line screening, initially tested at one concentration (10 μM), and subsequently selected for full five concentration testing following the standard protocols disclosed by NCI [34]. In brief, cells were plated into 96 well micro-titer plates 24 h prior to the treatment of compound solution for 48 h, then the cell viability was read out through absorbance of sulforhodamine B (SRB) staining.

caspase 3/7 = test: Caspase 3/7 functional assay (Caspase-Glo 3/7); type: cell-based, human; conditions: 1 μM, 24 h, A375 or PC-3 cells, N = 3
Procedure: The caspase 3/7 activity of cancer cells treated by DMSO control or compound of interest was analyzed using Glo Caspase-Glo 3/7 kit from Promega Corporation (Madison, WI) as per manufacturer’s instructions in similar protocol as described before. The readings of relative luminescence unit were normalized by the cell viability read from the same well determined by compatible CytoTox-Fluor Cytotoxicity assay kit (Promega, WI).

| IC50 (A375) [nM] | IC50 (PC-3) [nM] | Structure (SMILES) | IC50 (M14/LCC6MDR1; Homo sapiens, 48 h) [nM] | Resistance Index (M14/LCC6MDR1) | IC50 (M14) [nM] | IC50 (M14/LCC6MDR1) [nM] | GI50 (NCI-60 cell lines; Homo sapiens, five dose testing, 48 h, SRB, read-out: Average GI50 over all cancer cell lines in the NCI-60 panel) [nM] | Activity in NCI-60 one-concentration screening (NCI-60 cell lines) | Caspase 3/7 activation relative to DMSO control group (caspase 3/7) |
| --- | --- | --- | --- | --- | --- | --- | --- | --- | --- |
| 2500 ± 500 | 3400 ± 700 | Oc1c(CN2CCCC2)cc(COCc2cccs2)c2cccnc12 [6b, 7-(pyrrolidin-1-ylmethyl)-5-((thiophen-2-ylmethoxy)methyl)quinolin-8-ol] | 4200 ± 200 | 2.2 | 1900 ± 900 | – | – | – | – |
| 2700 ± 300 | 27500 ± 2000 | Oc1c(CN2CCCC2)cc(COCc2ccco2)c2cccnc12 [6a, 5-((furan-2-ylmethoxy)methyl)-7-(pyrrolidin-1-ylmethyl)quinolin-8-ol] | 15300 ± 3100 | 4.9 | 3100 ± 300 | – | – | – | – |
| 2800 ± 900 | – | Oc1c(CN2CCCC2)cc(COCCc2ccccc2)c2cccnc12 [10a, 5-(phenethoxymethyl)-7-(pyrrolidin-1-ylmethyl)quinolin-8-ol] | 15000 to 20000 | 5.2 | 2900 ± 200 | 15000 ± 2500 | – | – | – |
| 1000 ± 100 | – | Oc1c(CN2CCCC2)cc(COCC2CCCCC2)c2cccnc12 [6d, 5-((cyclohexylmethoxy)methyl)-7-(pyrrolidin-1-ylmethyl)quinolin-8-ol] | – | – | 1300 ± 600 | – | – | – | – |
| 1100 ± 100 | 1300 ± 300 | Oc1c(CN2CCCCC2)cc(COCc2ccccc2)c2cccnc12 [8a, 5-((benzyloxy)methyl)-7-(piperidin-1-ylmethyl)quinolin-8-ol] | 2100 ± 600 | 1.6 | 1300 ± 200 | – | – | – | – |
| 1900 ± 600 | 1600 ± 1000 | Oc1c(CN2CCCC2)cc(COCc2ccccc2)c2cccnc12 [UC-112, 5-((benzyloxy)methyl)-7-(pyrrolidin-1-ylmethyl)quinolin-8-ol, reference compound] | 3200 ± 500 | 1.5 | 2100 ± 300 | – | 2200 | good activity | – |
| 5000 ± 300 | – | CCCOCc1cc(CN2CCCC2)c(O)c2ncccc12 [6f, 5-(propoxymethyl)-7-(pyrrolidin-1-ylmethyl)quinolin-8-ol] | – | – | 5900 ± 1200 | – | – | – | – |
| 8400 ± 1500 | > 30000 | Oc1c(CN2CCCC2)cc(COCc2ccccn2)c2cccnc12 [6c, 5-((pyridin-2-ylmethoxy)methyl)-7-(pyrrolidin-1-ylmethyl)quinolin-8-ol] | > 30000 | >3.8 | 8000 ± 2200 | – | – | – | – |
| 5000 ± 1600 | – | Oc1c(CN2CCOCC2)cc(COCc2ccccc2)c2cccnc12 [8b, 5-((benzyloxy)methyl)-7-(morpholinomethyl)quinolin-8-ol] | 3500 ± 1000 | 0.7 | 4800 ± 500 | – | – | – | – |
| 7100 ± 700 | 2500 ± 600 | CN(Cc1ccccc1)Cc1cc(CN2CCCC2)c(O)c2ncccc12 [12b, 5-((benzyl(methyl)amino)methyl)-7-(pyrrolidin-1-ylmethyl)quinolin-8-ol] | 8000 ± 1000 | 1.3 | 6200 ± 1400 | – | – | – | – |
| 1400 ± 300 | 1100 ± 100 | Oc1c(CN2CCCC2)cc(CSCc2ccccc2)c2cccnc12 [12a, 5-((benzylthio)methyl)-7-(pyrrolidin-1-ylmethyl)quinolin-8-ol] | 2900 ± 600 | 2.1 | 1400 ± 200 | – | – | good activity | up to 4 folds |
| 2400 ± 700 | – | Oc1c(CN2CCCC2)cc(COCCCc2ccccc2)c2cccnc12 [10b, 5-((3-phenylpropoxy)methyl)-7-(pyrrolidin-1-ylmethyl)quinolin-8-ol] | 15000 to 20000 | 8.7 | 2300 ± 800 | 20000 ± 1600 | – | – | – |
| 6100 ± 700 | – | CCOCc1cc(CN2CCCC2)c(O)c2ncccc12 [6e, 5-(ethoxymethyl)-7-(pyrrolidin-1-ylmethyl)quinolin-8-ol] | – | – | 5100 ± 2100 | – | – | – | – |

Second part, the compound before the results:

| Structure (SMILES) | IC50 (A375) [nM] | IC50 (PC-3) [nM] | IC50 (M14/LCC6MDR1; Homo sapiens, 48 h) [nM] | Resistance Index (M14/LCC6MDR1) | IC50 (M14) [nM] | IC50 (M14/LCC6MDR1) [nM] | GI50 (NCI-60 cell lines; Homo sapiens, five dose testing, 48 h, SRB, read-out: Average GI50 over all cancer cell lines in the NCI-60 panel) [nM] | Activity in NCI-60 one-concentration screening (NCI-60 cell lines) | Caspase 3/7 activation relative to DMSO control group (caspase 3/7) |
| --- | --- | --- | --- | --- | --- | --- | --- | --- | --- |
| COc1ccc(COCc2cc(CN3CCCC3)c(O)c3ncccc23)cc1 [4i, 5-(((4-methoxybenzyl)oxy)methyl)-7-(pyrrolidin-1-ylmethyl)quinolin-8-ol] | 1800 ± 200 | 1000 ± 400 | 3800 ± 600 | 2.5 | 1500 ± 400 | – | – | – | – |
| Cc1ccc(COCc2cc(CN3CCCC3)c(O)c3ncccc23)cc1 [4e, 5-(((4-methylbenzyl)oxy)methyl)-7-(pyrrolidin-1-ylmethyl)quinolin-8-ol] | 1700 ± 300 | 1100 ± 200 | 4100 ± 2000 | 1.8 | 2300 ± 500 | – | – | – | – |
| CC(C)(C)c1ccc(COCc2cc(CN3CCCC3)c(O)c3ncccc23)cc1 [4h, 5-(((4-(tert-butyl)benzyl)oxy)methyl)-7-(pyrrolidin-1-ylmethyl)quinolin-8-ol] | 1100 ± 400 | 1500 ± 300 | 1500 ± 700 | – | – | – | – | – | – |
| CC(=O)Nc1ccc(COCc2cc(CN3CCCC3)c(O)c3ncccc23)cc1 [4k, N-(4-(((8-hydroxy-7-(pyrrolidin-1-ylmethyl)quinolin-5-yl)methoxy)methyl)phenyl)acetamide] | 4700 ± 800 | – | 5500 ± 1300 | – | – | – | – | – | – |
| COCCn1c2c([n+](Cc3cnccn3)c1C)C(=O)c1ccccc1C2=O [YM-155, reference compound] | – | – | > 10000 | higher than 2941 | 3 | – | – | – | – |
| Oc1c(CN2CCCC2)cc(COCc2ccc(C(F)(F)F)cc2)c2cccnc12 [4d, 7-(pyrrolidin-1-ylmethyl)-5-(((4-(trifluoromethyl)benzyl)oxy)methyl)quinolin-8-ol] | 900 ± 300 | 1000 ± 100 | 1900 ± 500 | 1.9 | 1000 ± 400 | – | – | – | – |
| Oc1c(CN2CCCC2)cc(COCc2ccc(OCc3ccccc3)cc2)c2cccnc12 [4j, 5-(((4-(benzyloxy)benzyl)oxy)methyl)-7-(pyrrolidin-1-ylmethyl)quinolin-8-ol] | 2800 ± 100 | – | 12100 ± 500 | – | – | – | – | – | – |
| Oc1c(CN2CCCC2)cc(COCc2ccc(Cl)cc2)c2cccnc12 [4b, 5-(((4-chlorobenzyl)oxy)methyl)-7-(pyrrolidin-1-ylmethyl)quinolin-8-ol] | 1500 ± 300 | 900 ± 100 | 2400 ± 500 | 2.2 | 1100 ± 100 | – | – | – | – |
| COc1cc(COCc2cc(CN3CCCC3)c(O)c3ncccc23)cc(OC)c1OC [4l, 7-(pyrrolidin-1-ylmethyl)-5-(((3,4,5-trimethoxybenzyl)oxy)methyl)quinolin-8-ol] | 2800 ± 400 | 1600 ± 300 | > 30000 | > 8.3 | 3600 ± 1000 | – | – | – | – |
| Oc1c(CN2CCCC2)cc(COCc2ccc(F)cc2)c2cccnc12 [4a, 5-(((4-fluorobenzyl)oxy)methyl)-7-(pyrrolidin-1-ylmethyl)quinolin-8-ol] | 1500 ± 200 | 700 ± 200 | 4400 ± 700 | 2.4 | 1800 ± 300 | – | – | – | – |
| Oc1c(CN2CCCC2)cc(COCc2ccc(Br)cc2)c2cccnc12 [4c, 5-(((4-bromobenzyl)oxy)methyl)-7-(pyrrolidin-1-ylmethyl)quinolin-8-ol] | 900 ± 200 | 700 ± 300 | 1800 ± 600 | 1.8 | 1000 ± 200 | – | – | good activity | up to 4 folds |
| CCCCOCc1cc(CN2CCCC2)c(O)c2ncccc12 [6g, 5-(butoxymethyl)-7-(pyrrolidin-1-ylmethyl)quinolin-8-ol] | 3000 ± 500 | – | – | – | 4900 ± 1300 | – | – | – | – |

Source: article PMC4466525, “Design, Synthesis and Structure-Activity Relationship Studies of Novel Survivin Inhibitors with Potent Anti-Proliferative Properties” (PLoS ONE, 2015)
